From US8802597B2, “Herbicidal pyrimidines” (E I du Pont de Nemours and Company, priority 2003, dated 2014)

Legend:
Format in all cases: in vivo
[1] = tested on: corn (Zea mays); assay: Test B pre/postemergence; conditions: for Corn plant response rating: Postemergence; for Plant response rating, Corn: Preemergence
In short: (§1)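 Visual rating, 0 (no effect) to 100 (complete control) versus controls, taken 13–15 days after treatment in greenhouse. Compounds formulated in non-phytotoxic solvent plus surfactant; pre: sprayed after seeding; post: plants at 1- to 4-leaf stage, 2–18 cm.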

[2] = tested on: Surinam grass (Brachiaria decumbens); assay: Test B pre/postemergence; conditions: for Surinam Grass plant response rating: Postemergence; for Plant response rating, Surinam Grass: Preemergence
In short: as §1

[3] = tested on: wheat (Triticum aestivum); assay: Test B pre/postemergence; conditions: for Wheat plant response rating: Postemergence; for Plant response rating, Wheat: Preemergence
In short: as §1

[4] = tested on: crabgrass (Digitaria sanguinalis); assay: Test B pre/postemergence; conditions: for Crabgrass plant response rating: Postemergence; for Plant response rating, Crabgrass: Preemergence
In short: as §1

[5] = tested on: morningglory (Ipomoea coccinea); assay: Test B pre/postemergence; conditions: for Morningglory plant response rating: Postemergence; for Plant response rating, Morningglory: Preemergence
In short: as §1

[6] = tested on: velvetleaf (Abutilon theophrasti); assay: Test B pre/postemergence; conditions: for Velvetleaf plant response rating: Postemergence; for Plant response rating, Velvetleaf: Preemergence
In short: as §1

[7] = tested on: giant foxtail (Setaria faberii); assay: Test B pre/postemergence; conditions: for Foxtail, Giant plant response rating: Postemergence; for Plant response rating, Foxtail, Giant: Preemergence
In short: as §1

[8] = tested on: barnyardgrass (Echinochloa crus-galli); assay: Test B pre/postemergence; conditions: for Barnyardgrass plant response rating: Postemergence; for Plant response rating, Barnyardgrass: Preemergence
In short: as §1

[9] = tested on: pigweed (Amaranthus retroflexus); assay: Test B pre/postemergence; conditions: for Pigweed plant response rating: Postemergence; for Plant response rating, Pigweed: Preemergence
In short: as §1

[10] = tested on: lambsquarters (Chenopodium album); assay: Test B pre/postemergence; conditions: for Lambsquarters plant response rating: Postemergence; for Plant response rating, Lambsquarters: Preemergence
In short: as §1

[11] = tested on: cocklebur (Xanthium strumarium); assay: Test B pre/postemergence; conditions: for Cocklebur plant response rating: Postemergence; for Plant response rating, Cocklebur: Preemergence
In short: as §1

[12] = tested on: wild oat (Avena fatua); assay: Test B postemergence; conditions: scale 0 to 100 (0 no effect, 100 complete control)
In short: as §1

[13] = tested on: blackgrass (Alopecurus myosuroides); assay: Test B postemergence; conditions: scale 0 to 100 (0 no effect, 100 complete control)
In short: as §1

[14] = tested on: umbrella sedge (Cyperus difformis); assay: Test B flooded paddy test; conditions: Flood, scale 0 to 100
In short: (§2)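 Plants were grown to the 2-leaf stage before treatment, then kept in a greenhouse for 13 to 15 days. Injury was rated visually against untreated controls on a 0 to 100 scale, where 0 is no effect and 100 is complete control.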

[15] = tested on: duck salad (Heteranthera limosa); assay: Test B flooded paddy test; conditions: Flood, scale 0 to 100
In short: as §2

[16] = tested on: barnyardgrass (Echinochloa crus-galli); assay: Test B flooded paddy test; conditions: Flood, scale 0 to 100
In short: as §2

[17] = tested on: rice (Oryza sativa); assay: Test B flooded paddy test; conditions: Flood, scale 0 to 100
In short: as §2

[18] = 62 g ai/ha, scale 0 to 100 (0 no effect, 100 complete control)
[19] = 125 g ai/ha, scale 0 to 100 (0 no effect, 100 complete control)
[20] = 62 g ai/ha, scale 0 to 100, 0 no effect, 100 complete control

## Nc1nc(C2CC2)nc(C(=O)O)c1Cl [Compound 135, 6-amino-5-chloro-2-cyclopropyl-4-pyrimidinecarboxylic acid]
[1]; [18]
  Corn plant response rating: 50
[1]; [19]
  Corn plant response rating: 80
  Plant response rating, Corn: 80
[1]; [20]
  Plant response rating, Corn: 50
[2]; [18]
  Surinam Grass plant response rating: 80
[2]; [19]
  Surinam Grass plant response rating: 80
  Plant response rating, Surinam Grass: 90
[2]; [20]
  Plant response rating, Surinam Grass: 80
[3]; [18]
  Wheat plant response rating: 40
[3]; [19]
  Wheat plant response rating: 60
  Plant response rating, Wheat: 90
[3]; [20]
  Plant response rating, Wheat: 70
[4]; [18]
  Crabgrass plant response rating: 60
[4]; [19]
  Crabgrass plant response rating: 70
  Plant response rating, Crabgrass: 90
[4]; [20]
  Plant response rating, Crabgrass: 80
[5]; [18]
  Morningglory plant response rating: 100
[5]; [19]
  Morningglory plant response rating: 100
  Plant response rating, Morningglory: 100
[5]; [20]
  Plant response rating, Morningglory: 100
[6]; [18]
  Velvetleaf plant response rating: 100
[6]; [19]
  Velvetleaf plant response rating: 100
  Plant response rating, Velvetleaf: 100
[6]; [20]
  Plant response rating, Velvetleaf: 90
[7]; [18]
  Foxtail, Giant plant response rating: 80
[7]; [19]
  Foxtail, Giant plant response rating: 80
  Plant response rating, Foxtail, Giant: 90
[7]; [20]
  Plant response rating, Foxtail, Giant: 60
[8]; [18]
  Barnyardgrass plant response rating: 70
[8]; [19]
  Barnyardgrass plant response rating: 90
  Plant response rating, Barnyardgrass: 90
[8]; [20]
  Plant response rating, Barnyardgrass: 70
[9]; [18]
  Pigweed plant response rating: 100
[9]; [19]
  Pigweed plant response rating: 100
  Plant response rating, Pigweed: 100
[9]; [20]
  Plant response rating, Pigweed: 100
[10]; [18]
  Lambsquarters plant response rating: 100
[10]; [19]
  Lambsquarters plant response rating: 100
  Plant response rating, Lambsquarters: 100
[10]; [20]
  Plant response rating, Lambsquarters: 100
[11]; [18]
  Cocklebur plant response rating: 100
[11]; [19]
  Cocklebur plant response rating: 100
  Plant response rating, Cocklebur: 100
[11]; [20]
  Plant response rating, Cocklebur: 100
[12]; 62 g ai/ha
  Oat, Wild plant response rating: 60
[12]; 125 g ai/ha
  Oat, Wild plant response rating: 60
[13]; 62 g ai/ha
  Blackgrass plant response rating: 60
[13]; 125 g ai/ha
  Blackgrass plant response rating: 70
[14]; 125 g ai/ha
  Plant response rating, Sedge, Umbrella: 70
[14]; 500 g ai/ha
  Plant response rating, Sedge, Umbrella: 80
[15]; 125 g ai/ha
  Plant response rating, Ducksalad: 60
[15]; 500 g ai/ha
  Plant response rating, Ducksalad: 90
[16]; 125 g ai/ha
  Plant response rating, Barnyardgrass: 30
[16]; 500 g ai/ha
  Plant response rating, Barnyardgrass: 80
[17]; 125 g ai/ha
  Plant response rating, Rice: 20
[17]; 500 g ai/ha
  Plant response rating, Rice: 60

## COC(=O)c1nc(-c2ccc(Cl)cc2)nc(N)c1Br [Compound 83]
[1]; [18]
  Corn plant response rating: 10
[1]; [19]
  Corn plant response rating: 10
  Plant response rating, Corn: 0
[1]; [20]
  Plant response rating, Corn: 0
[2]; [18]
  Surinam Grass plant response rating: 50
[2]; [19]
  Surinam Grass plant response rating: 60
  Plant response rating, Surinam Grass: 10
[2]; [20]
  Plant response rating, Surinam Grass: 0
[3]; [18]
  Wheat plant response rating: 0
[3]; [19]
  Wheat plant response rating: 30
  Plant response rating, Wheat: 50
[3]; [20]
  Plant response rating, Wheat: 20
[4]; [18]
  Crabgrass plant response rating: 50
[4]; [19]
  Crabgrass plant response rating: 60
  Plant response rating, Crabgrass: 60
[4]; [20]
  Plant response rating, Crabgrass: 30
[5]; [18]
  Morningglory plant response rating: 60
[5]; [19]
  Morningglory plant response rating: 100
  Plant response rating, Morningglory: 10
[5]; [20]
  Plant response rating, Morningglory: 0
[6]; [18]
  Velvetleaf plant response rating: 80
[6]; [19]
  Velvetleaf plant response rating: 90
  Plant response rating, Velvetleaf: 60
[6]; [20]
  Plant response rating, Velvetleaf: 50
[7]; [18]
  Foxtail, Giant plant response rating: 40
[7]; [19]
  Foxtail, Giant plant response rating: 50
  Plant response rating, Foxtail, Giant: 10
[7]; [20]
  Plant response rating, Foxtail, Giant: 0
[8]; [18]
  Barnyardgrass plant response rating: 50
[8]; [19]
  Barnyardgrass plant response rating: 80
  Plant response rating, Barnyardgrass: 30
[8]; [20]
  Plant response rating, Barnyardgrass: 20
[9]; [18]
  Pigweed plant response rating: 100
[9]; [19]
  Pigweed plant response rating: 100
  Plant response rating, Pigweed: 100
[9]; [20]
  Plant response rating, Pigweed: 80
[10]; [18]
  Lambsquarters plant response rating: 100
[10]; [19]
  Lambsquarters plant response rating: 100
  Plant response rating, Lambsquarters: 90
[10]; [20]
  Plant response rating, Lambsquarters: 70
[11]; [18]
  Cocklebur plant response rating: 90
[11]; [19]
  Cocklebur plant response rating: 100
  Plant response rating, Cocklebur: 50
[11]; [20]
  Plant response rating, Cocklebur: 10
[12]; 62 g ai/ha
  Oat, Wild plant response rating: 0
[12]; 125 g ai/ha
  Oat, Wild plant response rating: 40
[13]; 62 g ai/ha
  Blackgrass plant response rating: 50
[13]; 125 g ai/ha
  Blackgrass plant response rating: 60
[14]; 125 g ai/ha
  Plant response rating, Sedge, Umbrella: 90
[14]; 500 g ai/ha
  Plant response rating, Sedge, Umbrella: 100
[15]; 125 g ai/ha
  Plant response rating, Ducksalad: 100
[15]; 500 g ai/ha
  Plant response rating, Ducksalad: 100
[16]; 125 g ai/ha
  Plant response rating, Barnyardgrass: 0
[16]; 500 g ai/ha
  Plant response rating, Barnyardgrass: 0
[17]; 125 g ai/ha
  Plant response rating, Rice: 0
[17]; 500 g ai/ha
  Plant response rating, Rice: 0
